These results are taken from EP0326331B1, “Substituted quinolines and cinnolines” (Dow AgroSciences LLC, priority 1988, dated 1989).

Type in all cases: in vivo
The subject of test [1] is Erysiphe graminis tritici (powdery mildew). Description: Test 1 greenhouse foliar spray screen, powdery mildew on wheat. Conditions: disease control rating, foliar spray on wheat, 400 ppm (+++ at 100 ppm).
The subject of test [2] is Pyricularia oryzae (rice blast). The test is described as follows: whole plant or invertebrate. Conditions: disease control rating, foliar spray on rice, 400 ppm (+++ at 100 ppm).
The subject of test [3] is Puccinia recondita tritici (leaf rust). The test is described as follows: Test 1 greenhouse foliar spray screen, leaf rust on wheat. The following applies: disease control rating, foliar spray on wheat, 400 ppm (+++ at 100 ppm).
The subject of test [4] is Botrytis cinerea (gray mold). The test is described as follows: Test 1 greenhouse foliar spray screen, gray mold on grape berries. Conditions: disease control rating, spray on grape berries, 400 ppm (+++ at 100 ppm).
The test system of test [5] is Pseudoperonospora cubensis (downy mildew). The test is described as follows: Test 1 greenhouse foliar spray screen, downy mildew on squash. The following applies: disease control rating, foliar spray on squash, 400 ppm (+++ at 100 ppm).
Test [6] deals with Cercospora beticola (leaf spot). Description: Test 1 greenhouse foliar spray screen, leaf spot on sugar beet. The following applies: disease control rating, foliar spray on sugar beet, 400 ppm (+++ at 100 ppm).
Test [7] concerns Venturia inaequalis (apple scab). Description: Test 1 greenhouse foliar spray screen, apple scab on apple seedling. Conditions: disease control rating, foliar spray on apple seedling, 400 ppm (+++ at 100 ppm).
The test system of test [8] is Septoria tritici (leaf blotch). The test is described as follows: Test 1 greenhouse foliar spray screen, leaf blotch on wheat. The following applies: disease control rating, foliar spray on wheat, 400 ppm (+++ at 100 ppm).
In test [9] the test system is southern armyworm (Spodopetra eridania Cramer). The test is described as follows: Mite/insect screen, SAW. Conditions: Spodoptera eridania, percent mortality, SAW, read-out: SAW RESULTS %; for mortality at 200 ppm: SM & MA RATE 200 PPM; for mortality at 400 ppm: SM & MA RATE 400 PPM. The procedure, abridged: (§1)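 Percent mortality was scored after standard exposure periods, following spraying of leaves to runoff (both surfaces, 10 psi, 1 h drying) with water dilutions of compound in emulsifier-containing acetone/alcohol (50:50). Armyworms received excised treated leaves in dishes.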

The subject of test [10] is Twospotted spider mites (Tetranychus urticae Koch). Description: Mite/insect screen, SM. The following applies: Tetranychus urticae, percent mortality, SAW, read-out: SM RESULTS %; for mortality at 200 ppm: SM & MA RATE 200 PPM; for mortality at 400 ppm: SM & MA RATE 400 PPM. The procedure, abridged:
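Read-out: percent mortality after standard exposure periods. Test solutions were water dilutions of compound dissolved in acetone/alcohol (50:50) with emulsifier blends; leaves were sprayed to runoff on both surfaces and air-dried for one hour before exposure.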

The subject of test [11] is melon aphids (Aphis gossypii Glover). The test is described as follows: Mite/insect screen, MA. Conditions: Aphis gossypii, percent mortality, SAW, read-out: MA RESULTS %; for mortality at 200 ppm: SM & MA RATE 200 PPM; for mortality at 400 ppm: SM & MA RATE 400 PPM. The procedure, abridged: as §1
For another test, the system named is corn rootworm. Description: Mite/insect screen, CRW. The following applies: percent mortality, read-out: CRW RESULTS %; for mortality at 12 ppm: CRW RATE 12.00 PPM; for mortality at 24 ppm: CRW RATE 24.00 PPM. The essentials:
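Corn rootworm mortality (%) was evaluated following standard exposure times. Test material was emulsified by dissolution in acetone/alcohol (1:1) containing sulfonate/nonionic emulsifier blends TOXIMUL R (23 g/L) and TOXIMUL S (13 g/L), and water-diluted to the indicated doses.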

As to `COc1ccc(CCNc2ccnc3ccc(C)cc23)cc1` [Example 46, N-[2-(4-methoxyphenyl)ethyl]-6-methyl-4-quinolinamine], the “POWD MDEW” value in [1] was “+ (20-89% control at 400 ppm)”. The “RICE BLAST” value in test [2] was “++ (90-100% control at 400 ppm)”. The “LEAF RUST” value in test [3] is on record as “+ (20-89% control at 400 ppm)”. Further, the “GRAY MOLD” value in test [4] is listed as “- (0-19% control at 400 ppm)”. Besides, the “DOWN MDEW” value in [5] is given as “++ (90-100% control at 400 ppm)”. The “LEAF SPOT” value in [6] is on record as “+++ (90-100% control at 100 ppm)”. The “APPL SCAB” value in test [7] is on record as “+ (20-89% control at 400 ppm)”. Further, the “LEAF BLOT” value in [8] was “+ (20-89% control at 400 ppm)”. For the same molecule, the mortality at 200 ppm in test [9], in [10] and in [11] was 0% each time. Also, the mortality at 400 ppm in test [9], in test [10] and in test [11] was 0% throughout. Also, the mortality at 12 ppm in the test with corn rootworm stood at 0%. In the test on corn rootworm, the mortality at 24 ppm stood at 0%.
Take `COc1ccc(CCNc2ccnc3cc(C(F)(F)F)ccc23)cc1OC` [Example 48, N-[2-(3,4-dimethoxyphenyl)ethyl]-7-(trifluoromethyl)-4-quinolinamine]: the “POWD MDEW” value in test [1] is “+ (20-89% control at 400 ppm)”. Besides, the “RICE BLAST” value in test [2] was “+ (20-89% control at 400 ppm)”. For the same molecule, the “LEAF RUST” value in [3] is “+ (20-89% control at 400 ppm)”. Further, the “GRAY MOLD” value in test [4] is “- (0-19% control at 400 ppm)”. The “DOWN MDEW” value in test [5] is “++ (90-100% control at 400 ppm)”. Moreover, the “LEAF SPOT” value in test [6] was “+ (20-89% control at 400 ppm)”. Besides, the “APPL SCAB” value in [7] was “- (0-19% control at 400 ppm)”. Besides, in [8], the “LEAF BLOT” value is “- (0-19% control at 400 ppm)”. Moreover, in [9], the mortality at 200 ppm is 0% and the mortality at 400 ppm worked out at 0%. Also, in test [10], the mortality at 200 ppm was 0% and the mortality at 400 ppm stood at 0%. Moreover, in test [11], the mortality at 200 ppm came out at 0% and the mortality at 400 ppm was found to be 0%. Also, in the test on corn rootworm, the mortality at 12 ppm came to 0% and the mortality at 24 ppm is 0%.
For `Cc1ccc(CCNc2ccnc3cc(Cl)ccc23)cc1` [Example 50, 7-chloro-N-[2-(4-methylphenyl)ethyl]-4-quinolinamine], the “POWD MDEW” value in test [1] is recorded as “+++ (90-100% control at 100 ppm)”. The “RICE BLAST” value in [2] is “- (0-19% control at 400 ppm)”. The “LEAF RUST” value in [3] was “++ (90-100% control at 400 ppm)”. Besides, the “GRAY MOLD” value in [4] is listed as “- (0-19% control at 400 ppm)”. Besides, in test [5], the “DOWN MDEW” value is given as “+++ (90-100% control at 100 ppm)”. For the same molecule, the “LEAF SPOT” value in test [6] is on record as “- (0-19% control at 400 ppm)”. For the same molecule, the “APPL SCAB” value in [7] is “- (0-19% control at 400 ppm)”. The “LEAF BLOT” value in [8] is on record as “- (0-19% control at 400 ppm)”. Moreover, the mortality at 200 ppm in test [9], in [10] and in test [11] was 0% each time. In addition, the mortality at 400 ppm in [9], in [10] and in test [11] was 0% each time. In the test on corn rootworm, the mortality at 12 ppm was 0%. Also, in the test with corn rootworm, the mortality at 24 ppm amounted to 0%.
With `Fc1ccc(CCNc2ccnc3c(Cl)cccc23)cc1` [Example 51, 8-chloro-N-[2-(4-fluorophenyl)ethyl]-4-quinolinamine], in [1], the “POWD MDEW” value was “- (0-19% control at 400 ppm)”. The “RICE BLAST” value in test [2] is given as “+ (20-89% control at 400 ppm)”. For the same molecule, the “LEAF RUST” value in [3] is reported as “+ (20-89% control at 400 ppm)”. Moreover, the “GRAY MOLD” value in [4] is reported as “- (0-19% control at 400 ppm)”. The “DOWN MDEW” value in test [5] is given as “+++ (90-100% control at 100 ppm)”. Further, the “LEAF SPOT” value in [6] was “+++ (90-100% control at 100 ppm)”. For the same molecule, the “APPL SCAB” value in [7] is on record as “- (0-19% control at 400 ppm)”. Also, the “LEAF BLOT” value in test [8] is on record as “- (0-19% control at 400 ppm)”. In addition, in [9], the mortality at 200 ppm is 0% and the mortality at 400 ppm amounted to 20%. In addition, in test [10], the mortality at 200 ppm was 0% and the mortality at 400 ppm stood at 0%. In test [11], the mortality at 200 ppm came to 0% and the mortality at 400 ppm worked out at 0%. Besides, in the test with corn rootworm, the mortality at 12 ppm worked out at 0% and the mortality at 24 ppm was 0%.
Take `FC(F)(F)c1cccc2c(NCCc3ccc(Cl)cc3Cl)ccnc12` [Example 52, N-[2-(2,4-dichlorophenyl)ethyl]-8-(trifluoromethyl)-4-quinolinamine]: the “POWD MDEW” value in test [1] is “- (0-19% control at 400 ppm)”. Also, in test [2], the “RICE BLAST” value was “+ (20-89% control at 400 ppm)”. The “LEAF RUST” value in test [3] is “+ (20-89% control at 400 ppm)”. The “GRAY MOLD” value in [4] is listed as “- (0-19% control at 400 ppm)”. The “DOWN MDEW” value in [5] was “+++ (90-100% control at 100 ppm)”. For the same molecule, the “LEAF SPOT” value in [6] is reported as “+ (20-89% control at 400 ppm)”. Moreover, in test [7], the “APPL SCAB” value is “- (0-19% control at 400 ppm)”. For the same molecule, the “LEAF BLOT” value in [8] is listed as “+++ (90-100% control at 100 ppm)”. For the same molecule, in test [9], the mortality at 200 ppm was 0% and the mortality at 400 ppm came out at 0%. Further, in [10], the mortality at 200 ppm was 0% and the mortality at 400 ppm is 0%. For the same molecule, in [11], the mortality at 200 ppm came to 0% and the mortality at 400 ppm was 0%. Further, in the test with corn rootworm, the mortality at 12 ppm turned out to be 0% and the mortality at 24 ppm came out at 0%.
`Cc1ccc2nccc(NCCc3ccc(Cl)cc3Cl)c2c1` [Example 53, .N-[2-(2,4-dichlorophenyl)ethyl]-6-methyl-4-quinolinamine]: the “POWD MDEW” value in [1] is recorded as “+++ (90-100% control at 100 ppm)”. Moreover, the “RICE BLAST” value in test [2] is given as “+ (20-89% control at 400 ppm)”. In addition, in [3], the “LEAF RUST” value is “+ (20-89% control at 400 ppm)”. Moreover, the “GRAY MOLD” value in test [4] is “- (0-19% control at 400 ppm)”. For the same molecule, the “DOWN MDEW” value in [5] is listed as “+++ (90-100% control at 100 ppm)”. In addition, the “LEAF SPOT” value in test [6] is listed as “+++ (90-100% control at 100 ppm)”. For the same molecule, the “APPL SCAB” value in test [7] is given as “- (0-19% control at 400 ppm)”. In addition, the “LEAF BLOT” value in test [8] is given as “+ (20-89% control at 400 ppm)”. For the same molecule, in test [9], the mortality at 200 ppm turned out to be 0% and the mortality at 400 ppm was found to be 0%. In addition, in test [10], the mortality at 200 ppm is 0% and the mortality at 400 ppm was 0%. Further, in test [11], the mortality at 200 ppm was 0% and the mortality at 400 ppm amounted to 0%. Further, in the test on corn rootworm, the mortality at 12 ppm was 0% and the mortality at 24 ppm turned out to be 0%.
Take `COc1cc2c(NCCc3ccccc3)cc(C)nc2cc1Cl` [Example 54, 7-chloro-6-methoxy-2-methyl-N-(2-phenylethyl)-4-quinolinamine]: in test [1], the “POWD MDEW” value is reported as “- (0-19% control at 400 ppm)”. Also, in test [2], the “RICE BLAST” value was “++ (90-100% control at 400 ppm)”. Further, the “LEAF RUST” value in test [3] is “+ (20-89% control at 400 ppm)”. Besides, the “GRAY MOLD” value in test [4] is given as “- (0-19% control at 400 ppm)”. For the same molecule, the “DOWN MDEW” value in test [5] was “+++ (90-100% control at 100 ppm)”. Moreover, the “LEAF SPOT” value in test [6] is given as “+++ (90-100% control at 100 ppm)”. Moreover, in test [7], the “APPL SCAB” value is listed as “- (0-19% control at 400 ppm)”. For the same molecule, the “LEAF BLOT” value in [8] is on record as “+ (20-89% control at 400 ppm)”. Besides, the mortality at 200 ppm in test [9], in test [10] and in [11] was 0% throughout. The mortality at 12 ppm in the test with corn rootworm is 0%.
